Results: patent publication US20100249419A1, “UTILIZATION OF NOVEL COMPOUNDS WITH AMYLOID AFFINITY AND METHOD OF PRODUCING THE SAME” (NIHON MEDI-PHYSICS CO., LTD., priority 2007, published 2010)

Assays:
[1] = Transferability into brain and clearance; assay type: in vivo, male Wistar rats; conditions: intravenous injection, rats
Protocol: Using Compound 1 (Example 10) and Compound 2 (Example 11), a time course change of radioactive accumulation in brain of male Wistar rats (7-week old) was measured.
A diethyl ether solution of Compound 1 (Example 10) prepared in Example 3, a diethyl ether solution of Compound 2 (Example 11) prepared in Example 6 and a diethyl ether solution of [^123I]-IMPY (Comparative Example 5) prepared in Reference Example 1 were each diluted with 10 mg/mL ascorbic acid-containing physiological saline solution to adjust to a radioactive concentration of 8-12 MBq/mL. 0.05 mL each of the prepared sample solutions was injected under thiopental anesthesia into the tail vein of the rats. The rats were sacrificed by bleeding from abdominal artery, and brains were removed and subjected to measurement of mass of brains and further subjected to measurement of radioactivity (hereinafter referred to as A in this Example) with a single channel analyzer (detector type: SP-20 manufactured by OHYO KOKEN KOGYO Co., Ltd.) 2, 5, 30 and 60 minutes after the injection. Further, the radioactivity level of the rest of the whole body was measured in the same manner as above (hereinafter referred to as B in this Example). Using these measurement results, radioactive distribution per unit weight of brain (% ID/g) at the respective time points were calculated in accordance with the following formula (3).
Three animals were used for the experiment at the respective time points.
Using Compound 4 and Compound 6, a time course change of radioactive accumulation in brain of male Wistar rats (7-week old) was measured.
Compound 4 (Example 22), Compound 6 (Example 23) and a solution of [^123I]-IMPY (Comparative Example 8) prepared above in Reference Example 1 were each diluted with a 10 mg/mL ascorbic acid-containing physiological saline solution to prepare solutions (20-31 MBq/mL in radioactive concentration). 0.05 mL each of the prepared sample solutions was injected under thiopental anesthesia into the tail vein of the respective Wistar rat (7-week old). The rats were sacrificed by bleeding from abdominal artery, and brains were removed and subjected to measurement of mass of brains and further subjected to measurement of radioactivity (hereinafter referred to as A in this Example) with a single channel analyzer (detector type: SP-20 manufactured by OHYO KOKEN KOGYO Co., Ltd.) 2, 5, 30 and 60 minutes after the injection. Further, the radioactivity level of the rest of the whole body was measured in the same manner as above (hereinafter referred to as B in this Example). Using these measurement results, radioactive distribution per unit weight of brain (% ID/g) at the respective time points were calculated in accordance with the following formula (5).

[2] = Partition coefficient based on the octanol extraction method; assay type: physicochemical; conditions: octanol / 10 mmol/L phosphate buffer (pH 7.4)
Protocol: Partition coefficients based on the octanol extraction method (hereinafter referred to as log Poctanol) were measured, which are generally known as an indicator of permeability of compounds through the blood-brain barrier (hereinafter referred to as BBB).
A diethyl ether solution of Compound 1 prepared in Example 3 (Example 8), a diethyl ether solution of Compound 2 prepared in Example 6 (Example 9), and a diethyl ether solution of [^123I]-IMPY prepared in Reference Example 1 (Comparative Example 4) were each diluted with 10 mg/mL ascorbic acid-containing physiological saline solution, and adjusted to a radioactive concentration of 20-30 MBq/mL. To 2 mL of octanol, 10 μL each of the prepared sample solutions was added, 2 mL of 10 mmol/L phosphate buffer (pH 7.4) was added, followed by stirring for 30 seconds. After the mixture was centrifuged with a low-speed centrifuge (2000 rpm×60 min.), the octanol layer and the water layer were sampled each in an amount of 1 mL, and subjected to measurement of radioactivity count with an autowell gamma system (Type: ARC-301B, manufactured by Aloka). Using the obtained radioactivity count, log Poctanol was calculated in accordance with the equation (2).
A diethyl ether solution (Example 20) of Compound 4 prepared in Example 16, a diethyl ether solution (Example 21) of Compound 6 prepared in Example 19, and a diethyl ether solution (Comparative Example 7) of [^123I]-IMPY were each diluted with a 10 mg/mL ascorbic acid-containing physiological saline solution to adjust to a radioactive concentration of 20-30 MBq/mL. To 2 mL of octanol, 10 μL each of the prepared sample solution was added, and 2 mL of 10 mmol/L phosphate buffer (pH 7.4) was further added, followed by stirring for 30 seconds. After the mixture was centrifuged with a low-speed centrifuge (2000 rpm×60 min.), the octanol layer and the water layer were sampled each in an amount of 1 mL, and subjected to measurement of radioactivity count with an autowell gamma system (Type: ARC-301B, manufactured by Aloka). Using the obtained radioactivity count, logPoctanol was calculated in accordance with the equation (4).

Substance | Radioactive distribution per unit weight of brain ([1]; After 2 min., Table 7) | Radioactive distribution per unit weight of brain ([1]; After 5 min., Table 7) | Radioactive distribution per unit weight of brain ([1]; After 30 min., Table 7) | Radioactive distribution per unit weight of brain ([1]; After 60 min., Table 7) | logPoctanol value ([2]; Table 6, Examples 20-21) | Radioactive distribution per unit weight of brain ([1]; After 2 min., Table 5) | Radioactive distribution per unit weight of brain ([1]; After 5 min., Table 5) | Radioactive distribution per unit weight of brain ([1]; After 30 min., Table 5) | Radioactive distribution per unit weight of brain ([1]; After 60 min., Table 5) | logPoctanol value ([2]; Table 4, Examples 8-9)
2-[4′-(3″-hydroxypropoxy)phenyl]-6-[^123I]iodoimidazo[1,2-a]pyridine [Compound 6] | 0.81 % ID/g | 0.56 % ID/g | 0.07 % ID/g | 0.02 % ID/g | 2.1 | – | – | – | – | –
2-[4′-(2″-hydroxyethoxy)phenyl]-6-[^123I]iodoimidazo[1,2-a]pyridine [Compound 1] | – | – | – | – | – | 0.90 % ID/g | 0.52 % ID/g | 0.06 % ID/g | 0.01 % ID/g | 1.8
2-(4′-ethoxyphenyl)-6-[^123I]iodoimidazo[1,2-a]pyridine [Compound 2] | – | – | – | – | – | 0.89 % ID/g | 0.66 % ID/g | 0.13 % ID/g | 0.04 % ID/g | 2.1
